Drawing on the supplement of paper PMC10307832, this text covers relative viability for 1 cell line.

Experiment in all cases: relative viability (nuclei count vs DMSO), 5 days (fraction); higher = more cells survive
Compound in the experiment “Carboplatin + Navitoclax”: C1CC(C1)(C(=O)O)C(=O)O.[NH2-].[NH2-].[Pt+2] [Carboplatin] + CC1(C)CCC(c2ccc(Cl)cc2)=C(CN2CCN(c3ccc(C(=O)NS(=O)(=O)c4ccc(N[C@H](CCN5CCOCC5)CSc5ccccc5)c(S(=O)(=O)C(F)(F)F)c4)cc3)CC2)C1 [Navitoclax] (partner 0.5 µM)
The essentials:
(§1)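 A single step with final 0.05% Triton X-100, 1% formaldehyde and 1 ug/ml Hoechst fixed the cells and stained nuclei 5 days after treatment. Lung cancer cell lines in 1536-well plates had been treated by pin tool the day after seeding with one drug alone or a fixed anchor-drug dose plus five library-drug doses (not always all listed) in √10 steps, and nuclei were counted on 4× images. Relative viability is the ratio of nuclei in treated wells to nuclei in vehicle wells, taken as the median of duplicate plates.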

Compound in the experiment “Carboplatin + Crizotinib”: C1CC(C1)(C(=O)O)C(=O)O.[NH2-].[NH2-].[Pt+2] [Carboplatin] + C[C@@H](Oc1cc(-c2cnn(C3CCNCC3)c2)cnc1N)c1c(Cl)ccc(F)c1Cl [Crizotinib] (partner 1 µM)
The essentials:
as §1

Compound in the experiment “GSK126 + Lapatinib”: CC[C@H](C)N1C=C(C2=C(C=C(C=C21)C3=CN=C(C=C3)N4CCNCC4)C(=O)NCC5=C(C=C(NC5=O)C)C)C [GSK126] + CS(=O)(=O)CCNCc1ccc(-c2ccc3ncnc(Nc4ccc(OCc5cccc(F)c5)c(Cl)c4)c3c2)o1 [Lapatinib] (partner 2 µM)
In a few lines:
as §1

Compound in the experiment “GSK126 + Alpelisib”: CC[C@H](C)N1C=C(C2=C(C=C(C=C21)C3=CN=C(C=C3)N4CCNCC4)C(=O)NCC5=C(C=C(NC5=O)C)C)C [GSK126] + Cc1nc(NC(=O)N2CCC[C@H]2C(N)=O)sc1-c1ccnc(C(C)(C)C(F)(F)F)c1 [Alpelisib] (partner 2 µM)
The essentials: as §1

Take UMC-11: the relative viability was 0.325 with Carboplatin + Navitoclax (first compound 0.08 µM); 0.355 with Carboplatin + Navitoclax (first compound 0.253 µM); 0.342 with Carboplatin + Navitoclax (first compound 0.8 µM); 0.313 with Carboplatin + Navitoclax (first compound 2.53 µM); 0.256 in the experiment with Carboplatin + Navitoclax (first compound 8 µM); 0.721 with Carboplatin + Crizotinib (first compound 0.08 µM). The relative viability with Carboplatin + Crizotinib (first compound 0.253 µM) is 0.652; in the experiment with Carboplatin + Crizotinib (first compound 0.8 µM), 0.515; with Carboplatin + Crizotinib (first compound 2.53 µM), 0.484; in the experiment with Carboplatin + Crizotinib (first compound 8 µM), 0.301; with GSK126 + Lapatinib (first compound 0.08 µM) it was 1.05; with GSK126 + Lapatinib (first compound 0.253 µM), 0.998. The relative viability with GSK126 + Lapatinib (first compound 0.8 µM) came to 1.13; with GSK126 + Lapatinib (first compound 2.53 µM) it was 0.796; with GSK126 + Lapatinib (first compound 8 µM) it was 0.959; with GSK126 + Alpelisib (first compound 0.08 µM), 1.03; in the experiment with GSK126 + Alpelisib (first compound 0.253 µM), 1.1; with GSK126 + Alpelisib (first compound 0.8 µM) it was 0.983. Also, the relative viability in the experiment with GSK126 + Alpelisib (first compound 2.53 µM) was determined as 0.961; with GSK126 + Alpelisib (first compound 8 µM), 1.17.
